Values quoted from earlier work in patent US20210123868A1, “REAGENT COMPOSITION FOR PH MEASUREMENT” (MIURA CO., LTD., priority 2018, published 2021).

Details: value at 25° C.

acid dissociation constant (pKa)	Molecule
11.06	alizarin yellow
6.3	Cc1cc(C2(c3cc(C)c(O)c(Br)c3)OS(=O)(=O)c3ccccc32)cc(Br)c1O [bromocresol purple]
4.7	Cc1c(C2(c3cc(Br)c(O)c(Br)c3C)OS(=O)(=O)c3ccccc32)cc(Br)c(O)c1Br [bromocresol green]
